Read-outs that look alike come from different tables or passages of the source.
Experiments:
Format in all cases: cell-based
SK-OV-3 [1] = test: Growth inhibition assay (MTS/PMS) with DFMO, SK-OV-3; details: in the presence of DFMO (1-5 mM), 1 mM AG, 0.5 μM SPD, six days; repeat determinations; read-out: Cell Line EC50 SK-OV-3
Method: (§1) Medias were obtained from Mediatech, Inc. (Herdon, Va.) and serums from Gibco BRL (Gaithersburg, Md.). 50 U/ml penicillin, 50 μg/ml streptomycin and 2 mM L-glutamine (all from Bio Whittaker, Walkersville, Md.) were included in all cultures. […] When cells were cultured with polyamines or ORI compounds, 1 mM aminoguanidine (AG; Sigma) was included to inhibit serum amine oxidase activity.

PC-3 [2] = test: Growth inhibition assay (MTS/PMS) with DFMO, PC-3; details: in the presence of DFMO (1-5 mM), 1 mM AG, 0.5 μM SPD, six days; repeat determinations; read-out: Cell Line EC50 PC-3
Method: as §1

PC-3 [3] = test: Growth inhibition assay, PA alone, PC-3; details: PA alone (no DFMO), six days, repeat determinations, read-out: Cell Line IC50 PC-3
Method: as §1

SK-OV-3 [4] = test: Growth inhibition assay, PA alone, SK-OV-3; details: PA alone (no DFMO), six days, repeat determinations, read-out: Cell Line IC50 SK-OV-3
Method: as §1

MDA-MB-231 [5] = test: Growth inhibition assay, PA alone, MDA-MB-231; details: PA alone (no DFMO), six days, repeat determinations, read-out: Cell Line IC50 MDA-MB-231
Method: as §1

MDA-MB-231 [6] = test: Growth inhibition assay (MTS/PMS) with DFMO, MDA-MB-231; details: in the presence of DFMO (1-5 mM), 1 mM AG, 0.5 μM SPD, six days; repeat determinations; read-out: Cell Line EC50 MDA-MB-231
Method: as §1

[7] = tested on: 4 cell lines (A375, MDA-MB-231, PC-3, SK-OV-3); test: Growth inhibition with DFMO, average over 4 cell lines; details: with DFMO
Method: Cells were plated in 96-well plates such that they would be in log growth for the duration of the assay. The day after plating, PAs were added to the cells, and growth, if any, permitted to continue for six days in the presence of 1 mM AG and 0.5 μM SPD to insure that any growth inhibition was not the result of depletion of external polyamines in the media. At the end of the six days, cell growth was measured by MTS/PMS dye assay (Cell Titer 96 Aqueous Non-Radioactive Cell Proliferation Assay; Promega, Madison, Wis.).

A375 = test: Growth inhibition assay, PA alone, A375; details: PA alone (no DFMO), six days, repeat determinations, read-out: Cell Line IC50 A375
Method: as §1

[8] = Table 3, average over cell lines, read-out: AVG. EC50
[9] = Homo sapiens, MDA-MB-231, 144 h
[10] = Table 2, average EC50 for 4 cell lines, read-out: Ave EC50 value

| Compound | EC50 (SK-OV-3 [1]) | EC50 (PC-3 [2]) | IC50 (PC-3 [3]) | IC50 (SK-OV-3 [4]) | IC50 (MDA-MB-231 [5]) | EC50 (MDA-MB-231 [6]) | EC50 [7, 8] | IC50 (A375) | IC50 (A375; Homo sapiens, A-375, 144 h) | IC50 (PC-3 [3]; Homo sapiens, PC-3, 144 h) | IC50 (SK-OV-3 [4]; Homo sapiens, SK-OV-3, 144 h) | IC50 (MDA-MB-231 [5]; [9]) | EC50 [7, 10] |
| --- | --- | --- | --- | --- | --- | --- | --- | --- | --- | --- | --- | --- | --- |
| CCCCCCCCCCCCCCCC(=O)NCCCC[C@H](NC(=O)CCCCCCCCCCCCCCC)C(=O)NCCCNCCCCNCCCN [IE4] | 0.132 µM | 0.2 µM | 21.5 µM | 7.25 µM | 17.9 µM | 0.267 µM | – | – | – | – | – | – | – |
| NCCCNCCCCNCCCNC(=O)[C@@H](N)CCCCNS(=O)(=O)c1ccc(CNC(=O)c2ccc(Cl)cc2)s1 [IIA21] | – | 0.46 µM | – | – | – | 1.4 µM | – | – | – | – | – | – | – |
| CCCCCCCCCCCCCCCCS(=O)(=O)NCCCC[C@H](NS(=O)(=O)CCCCCCCCCCCCCCCC)C(=O)NCCCNCCCCNCCCN [IIE10] | 0.272 µM | 0.152 µM | 14.3 µM | 20.1 µM | 24.5 µM | 0.392 µM | – | – | – | – | – | – | – |
| NCCCNCCCCNCCCNC(=O)[C@@H](N)CCCCNCC1CCCCC1 [IVA27] | – | – | > 100 µM | > 100 µM | > 100 µM | – | 4.69 µM | > 100 µM | – | – | – | – | – |
| CCCCNCCCC[C@@H](N)C(=O)NCCCNCCCCNCCCN [IVB3] | – | – | – | – | – | – | 2.2 µM | – | > 100 µM | > 100 µM | > 100 µM | > 100 µM | – |
| CCCCCCNCCCC[C@@H](N)C(=O)NCCCNCCCCNCCCN [IVB5] | – | – | – | – | – | – | 0.868 µM | – | > 100 µM | > 100 µM | > 100 µM | > 100 µM | – |
| CCCCCCCNCCCC[C@@H](N)C(=O)NCCCNCCCCNCCCN [IVB6] | – | – | – | – | – | – | 0.365 µM | – | > 100 µM | > 100 µM | > 100 µM | > 100 µM | – |
| CC(C)CCNCCCC[C@@H](N)C(=O)NCCCNCCCCNCCCN [IVB21] | – | – | – | – | – | – | 1.52 µM | 71 µM | > 100 µM | > 100 µM | > 100 µM | > 100 µM | – |
| CC(C)(C)CCNCCCC[C@@H](N)C(=O)NCCCNCCCCNCCCN [IVB22] | – | – | – | – | – | – | 1.33 µM | – | > 100 µM | > 100 µM | > 100 µM | > 100 µM | – |
| CC(C)CNCCCC[C@@H](N)C(=O)NCCCNCCCCNCCCN [IVB23] | – | – | – | – | – | – | 1.79 µM | – | > 100 µM | > 100 µM | > 100 µM | > 100 µM | – |
| CC(C)(C)CNCCCC[C@@H](N)C(=O)NCCCNCCCCNCCCN [IVB24] | – | – | – | – | – | – | 3.14 µM | 84.4 µM | > 100 µM | – | > 100 µM | > 100 µM | – |
| NCCCNCCCCNCCCNC(=O)[C@H](N)CCCCNCC1CC2C=CC1C2 (stereo partly drawn) [IVB25] | – | – | – | – | 61 µM | – | 0.939 µM | – | – | > 100 µM | – | > 100 µM | – |
| NCCCNCCCCNCCCNC(=O)[C@H](N)CCCCNCC1CCCCC1 [IVB27] | – | – | – | – | – | – | 0.414 µM | – | – | > 100 µM | – | > 100 µM | – |
| CC(C)=CCC[C@H](C)CCNCCCC[C@@H](N)C(=O)NCCCNCCCCNCCCN [IVB28] | – | – | – | – | – | – | 10.7 µM | – | 5.6 µM | 17.8 µM | 19.8 µM | 18.9 µM | – |
| NCCCNCCCCNCCCNC(=O)[C@H](N)CCCCNCc1ccc(-c2ccccc2)cc1 [IVB33] | – | – | – | – | – | – | – | – | – | > 100 µM | 72.9 µM | > 100 µM | – |
| NCCCNCCCCNCCCNC(=O)[C@H](CCCCNCc1ccccc1)NCc1ccccc1 [IVE30] | – | 1.7 µM | – | – | – | 4.2 µM | – | – | – | – | – | – | – |
| CC(C)(C)CNCCCC[C@H](N)C(=O)NCCCNCCCCNCCCN [VA22] | – | – | – | – | – | – | 6.98 µM | 83.5 µM | > 100 µM | > 100 µM | > 100 µM | > 100 µM | 2.42 µM |
| CCCC(CCC)NCCCC[C@H](N)C(=O)NCCCNCCCCNCCCN [VA26] | – | – | – | – | – | – | 3.91 µM | – | > 100 µM | > 100 µM | > 100 µM | > 100 µM | – |
| NCCCNCCCCNCCCNC(=O)[C@@H](N)CCCCNCC12CC3CC(CC(C3)C1)C2 [VA27] | – | – | – | – | – | – | 6.45 µM | – | > 100 µM | > 100 µM | > 100 µM | > 100 µM | 26.8 µM |
| CC(C)[C@@H]1CC[C@@H](C)CC1NCCCC[C@@H](N)C(=O)NCCCNCCCCNCCCN (stereo partly drawn) [VB28] | – | – | – | – | – | – | 0.905 µM | 64.5 µM | > 100 µM | > 100 µM | > 100 µM | > 100 µM | – |
